For orientation: IC50 means the concentration needed to halve the response being measured.

SMILES strings stand for the structures. Where only a bound is given, the exact number is not on record here.

One data set in a line: in vitro. Particulars: cat.
The next data set has as its target MERS-CoV 3CL^pro (Middle East respiratory syndrome-related coronavirus, UniProt K9N7C7). The data set is described as follows: biochemical.
The target in another data set is SARS-CoV-2 3CL^pro (Severe acute respiratory syndrome coronavirus 2, UniProt P0DTD1). The data set is described as follows: biochemical. The data set is classed as biochemical.

Chain of MERS-CoV 3CL^pro (K9N7C7 3248-3553 limits assumed): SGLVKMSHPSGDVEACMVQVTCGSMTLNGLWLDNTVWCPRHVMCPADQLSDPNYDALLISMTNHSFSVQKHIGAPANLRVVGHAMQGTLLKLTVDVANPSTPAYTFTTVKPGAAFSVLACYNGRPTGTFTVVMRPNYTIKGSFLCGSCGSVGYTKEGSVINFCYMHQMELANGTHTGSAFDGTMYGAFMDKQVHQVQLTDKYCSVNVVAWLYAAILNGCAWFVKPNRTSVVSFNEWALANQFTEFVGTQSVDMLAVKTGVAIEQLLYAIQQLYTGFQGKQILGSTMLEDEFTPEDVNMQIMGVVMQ

As to `CC(C)C[C@H](NC(=O)OC1CC2(C1)CN(C(=O)OC(C)(C)C)C2)C(=O)N[C@H](C=O)C[C@H]1CCNC1=O` [Compound 1b, tert-Butyl 6-((((S)-4-methyl-1-oxo-1-(((S)-1-oxo-3-((R)-2-oxopyrrolidin-3-yl)propan-2-yl)amino)pentan-2-yl)carbamoyl)oxy)-2-azaspiro[3.3]heptane-2-carboxylate], the CC50 in “in vitro” was > 100000 nM.

As to `CC(C)C[C@H](NC(=O)OC1CC2(C1)CN(C(=O)OC(C)(C)C)C2)C(=O)N[C@@H](C[C@H]1CCNC1=O)C(O)S(=O)(=O)O` (stereo partly drawn) [Compound 1c, Sodium (2S)-2-((S)-2-((((2-(tert-butoxycarbonyl)-2-azaspiro[3.3]heptan-6-yl)oxy)carbonyl)amino)-4-methylpentanamido)-1-hydroxy-3-((R)-2-oxopyrrolidin-3-yl)propane-1-sulfonate], the IC50 on MERS-CoV 3CL^pro was determined as 280 ± 110 nM; on SARS-CoV-2 3CL^pro, 850 ± 70 nM. In “in vitro”, the CC50 is > 100000 nM.

In the case of `CC(C)C[C@H](NC(=O)OC1CC2(C1)CN(C(=O)C(C)C)C2)C(=O)N[C@H](C=O)C[C@H]1CCNC1=O` [Compound 2b, 2-Isobutyryl-2-azaspiro[3.3]heptan-6-yl ((S)-4-methyl-1-oxo-1-(((S)-1-oxo-3-((R)-2-oxopyrrolidin-3-yl)propan-2-yl)amino)pentan-2-yl)carbamate], in “in vitro”, the CC50 is > 100000 nM.

Take `CC(C)C[C@H](NC(=O)OC1CC2(C1)CN(C(=O)C(C)C)C2)C(=O)N[C@@H](C[C@H]1CCNC1=O)C(O)S(=O)(=O)O` (stereo partly drawn) [Compound 2c, Sodium (2S)-1-hydroxy-2-((S)-2-((((2-isobutyryl-2-azaspiro[3.3]heptan-6-yl)oxy)carbonyl)amino)-4-methylpentanamido)-3-((R)-2-oxopyrrolidin-3-yl)propane-1-sulfonate]: the IC50 on MERS-CoV 3CL^pro stood at 550 ± 70 nM; against SARS-CoV-2 3CL^pro it was 650 ± 70 nM. Also, the CC50 in “in vitro” is > 100000 nM.

Take `CC(C)C[C@H](NC(=O)OC1CC2(C1)CN(C(=O)Cc1ccccc1)C2)C(=O)N[C@H](C=O)C[C@H]1CCNC1=O` [Compound 3b, 2-(2-Phenylacetyl)-2-azaspiro[3.3]heptan-6-yl ((S)-4-methyl-1-oxo-1-(((S)-1-oxo-3-((R)-2-oxopyrrolidin-3-yl)propan-2-yl)amino)pentan-2-yl)carbamate]: the CC50 in the data set “in vitro” is > 100000 nM. For the same molecule, the “fold lower IC50 than compound 1b” value at SARS-CoV-2 3CL^pro is ~13 fold.

Take `CC(C)C[C@H](NC(=O)OC1CC2(C1)CN(C(=O)Cc1ccccc1)C2)C(=O)N[C@@H](C[C@H]1CCNC1=O)C(O)S(=O)(=O)O` (stereo partly drawn) [Compound 3c, Sodium (2S)-1-hydroxy-2-((S)-4-methyl-2-((((2-(2-phenylacetyl)-2-azaspiro[3.3]heptan-6-yl)oxy)carbonyl)amino)pentanamido)-3-((R)-2-oxopyrrolidin-3-yl)propane-1-sulfonate]: the IC50 was determined as 130 ± 30 nM on MERS-CoV 3CL^pro and 260 ± 50 nM at SARS-CoV-2 3CL^pro. Besides, the CC50 in the data set “in vitro” is > 100000 nM.

For the molecule `CC(C)C[C@H](NC(=O)OC1CC2(C1)CN(S(C)(=O)=O)C2)C(=O)N[C@H](C=O)C[C@H]1CCNC1=O` [Compound 4b, 2-(Methylsulfonyl)-2-azaspiro[3.3]heptan-6-yl ((S)-4-methyl-1-oxo-1-(((S)-1-oxo-3-((R)-2-oxopyrrolidin-3-yl)propan-2-yl)amino)pentan-2-yl)carbamate], in the data set “in vitro”, the CC50 was > 100000 nM.

`CC(C)C[C@H](NC(=O)OC1CC2(C1)CN(S(C)(=O)=O)C2)C(=O)N[C@@H](C[C@H]1CCNC1=O)C(O)S(=O)(=O)O` (stereo partly drawn) [Compound 4c, Sodium (2S)-1-hydroxy-2-((S)-4-methyl-2-((((2-(methylsulfonyl)-2-azaspiro[3.3]heptan-6-yl)oxy)carbonyl)amino)pentanamido)-3-((R)-2-oxopyrrolidin-3-yl)propane-1-sulfonate]: the IC50 worked out at 160 ± 10 nM against MERS-CoV 3CL^pro and 760 ± 80 nM on SARS-CoV-2 3CL^pro. The CC50 in “in vitro” is > 100000 nM.

`CC(C)C[C@H](NC(=O)OC1CC2(CCN(C(=O)OC(C)(C)C)C2)C1)C(=O)N[C@H](C=O)C[C@H]1CCNC1=O` (stereo partly drawn) [Compound 5b, tert-Butyl 2-((((S)-4-methyl-1-oxo-1-(((S)-1-oxo-3-((R)-2-oxopyrrolidin-3-yl)propan-2-yl)amino)pentan-2-yl)carbamoyl)oxy)-6-azaspiro[3.4]octane-6-carboxylate] displayed an IC50 against MERS-CoV 3CL^pro of 700 ± 140 nM. The CC50 in the data set “in vitro” was > 100000 nM.

With `CC(C)C[C@H](NC(=O)OC1CC2(CCN(C(=O)OC(C)(C)C)C2)C1)C(=O)N[C@@H](C[C@H]1CCNC1=O)C(O)S(=O)(=O)O` (stereo partly drawn) [Compound 5c, Sodium (2S)-2-((S)-2-((((6-(tert-butoxycarbonyl)-6-azaspiro[3.4]octan-2-yl)oxy)carbonyl)amino)-4-methylpentanamido)-1-hydroxy-3-((R)-2-oxopyrrolidin-3-yl)propane-1-sulfonate], the 50% inhibitory concentration (IC50) against MERS-CoV 3CL^pro and against SARS-CoV-2 3CL^pro was 750 ± 70 nM throughout. The CC50 in “in vitro” is > 100000 nM.

Consider `CC(C)C[C@H](NC(=O)OC1CCC2(C1)CN(C(=O)OC(C)(C)C)C2)C(=O)N[C@H](C=O)C[C@H]1CCNC1=O` (stereo partly drawn) [Compound 6b, tert-Butyl 6-((((S)-4-methyl-1-oxo-1-(((S)-1-oxo-3-((R)-2-oxopyrrolidin-3-yl)propan-2-yl)amino)pentan-2-yl)carbamoyl)oxy)-2-azaspiro[3.4]octane-2-carboxylate], for which the CC50 in “in vitro” is > 100000 nM.

As for `CC(C)C[C@H](NC(=O)OC1CCC2(C1)CN(C(=O)OC(C)(C)C)C2)C(=O)N[C@@H](C[C@H]1CCNC1=O)C(O)S(=O)(=O)O` (stereo partly drawn) [Compound 6c, Sodium (2S)-2-((2S)-2-((((2-(tert-butoxycarbonyl)-2-azaspiro[3.4]octan-6-yl)oxy)carbonyl)amino)-4-methylpentanamido)-1-hydroxy-3-((R)-2-oxopyrrolidin-3-yl)propane-1-sulfonate], the IC50 against MERS-CoV 3CL^pro is 1300 ± 140 nM; at SARS-CoV-2 3CL^pro, 1200 ± 140 nM. Further, the CC50 in “in vitro” is > 100000 nM.

Turning to `CC(C)C[C@H](NC(=O)OC1CC2(CCN(C(=O)C(C)C)CC2)C1)C(=O)N[C@H](C=O)C[C@H]1CCNC1=O` [Compound 8b, 7-Isobutyryl-7-azaspiro[3.5]nonan-2-yl ((S)-4-methyl-1-oxo-1-(((S)-1-oxo-3-((R)-2-oxopyrrolidin-3-yl)propan-2-yl)amino)pentan-2-yl)carbamate], the CC50 in the data set “in vitro” was > 100000 nM.

In the case of `CC(C)C[C@H](NC(=O)OC1CC2(CCN(C(=O)Cc3ccccc3)CC2)C1)C(=O)N[C@H](C=O)C[C@H]1CCNC1=O` [Compound 9b, 7-(2-Phenylacetyl)-7-azaspiro[3.5]nonan-2-yl ((S)-4-methyl-1-oxo-1-(((S)-1-oxo-3-((R)-2-oxopyrrolidin-3-yl)propan-2-yl)amino)pentan-2-yl)carbamate], the CC50 in the data set “in vitro” was > 100000 nM.

As for `CC(C)C[C@H](NC(=O)OC1CC2(CCN(S(C)(=O)=O)CC2)C1)C(=O)N[C@H](C=O)C[C@H]1CCNC1=O` [Compound 10b, 7-(Methylsulfonyl)-7-azaspiro[3.5]nonan-2-yl ((S)-4-methyl-1-oxo-1-(((S)-1-oxo-3-((R)-2-oxopyrrolidin-3-yl)propan-2-yl)amino)pentan-2-yl)carbamate], the CC50 in the data set “in vitro” is > 100000 nM.

For `CC(C)C[C@H](NC(=O)OC1CC2(CCN(C#N)CC2)C1)C(=O)N[C@H](C=O)C[C@H]1CCNC1=O` [Compound 11b, 7-Cyano-7-azaspiro[3.5]nonan-2-yl ((S)-4-methyl-1-oxo-1-(((S)-1-oxo-3-((R)-2-oxopyrrolidin-3-yl)propan-2-yl)amino)pentan-2-yl)carbamate], the CC50 in the data set “in vitro” was > 100000 nM.

In the case of `CC(C)C[C@H](NC(=O)OC1CN(C(=O)OC(C)(C)C)C1)C(=O)N[C@H](C=O)C[C@H]1CCNC1=O` [Compound 12b, tert-Butyl 3-((((S)-4-methyl-1-oxo-1-(((S)-1-oxo-3-((R)-2-oxopyrrolidin-3-yl)propan-2-yl)amino)pentan-2-yl)carbamoyl)oxy)azetidine-1-carboxylate], the CC50 in “in vitro” is > 100000 nM.

Regarding `CC(C)C[C@H](NC(=O)OC1(C)CN(C(=O)OC(C)(C)C)C1)C(=O)N[C@H](C=O)C[C@H]1CCNC1=O` [Compound 13b, tert-Butyl 3-methyl-3-((((S)-4-methyl-1-oxo-1-(((S)-1-oxo-3-((R)-2-oxopyrrolidin-3-yl)propan-2-yl)amino)pentan-2-yl)carbamoyl)oxy)azetidine-1-carboxylate], the CC50 in “in vitro” is > 100000 nM.

Regarding `CC(C)C[C@H](NC(=O)OCC1CN(C(=O)Cc2ccccc2)C1)C(=O)N[C@H](C=O)C[C@H]1CCNC1=O` [Compound 15b, (1-(2-Phenylacetyl)azetidin-3-yl)methyl ((S)-4-methyl-1-oxo-1-(((S)-1-oxo-3-((R)-2-oxopyrrolidin-3-yl)propan-2-yl)amino)pentan-2-yl)carbamate], the CC50 in the data set “in vitro” was > 100000 nM.

As for `CC(C)C[C@H](NC(=O)OCC1CN(C(=O)C2CC3CCC2C3)C1)C(=O)N[C@H](C=O)C[C@H]1CCNC1=O` (stereo partly drawn) [Compound 16b, (1-(Bicyclo[2.2.1]heptane-2-carbonyl)azetidin-3-yl)methyl ((S)-4-methyl-1-oxo-1-(((S)-1-oxo-3-((R)-2-oxopyrrolidin-3-yl)propan-2-yl)amino)pentan-2-yl)carbamate], the CC50 in “in vitro” is > 100000 nM.

For the molecule `CC(C)C[C@H](NC(=O)OCC1CN(S(C)(=O)=O)C1)C(=O)N[C@H](C=O)C[C@H]1CCNC1=O` [Compound 17b, (1-(Methylsulfonyl)azetidin-3-yl)methyl ((S)-4-methyl-1-oxo-1-(((S)-1-oxo-3-((R)-2-oxopyrrolidin-3-yl)propan-2-yl)amino)pentan-2-yl)carbamate], the CC50 in the data set “in vitro” is > 100000 nM.

`[2H]C([2H])(OC(=O)N[C@@H](CC(C)C)C(=O)N[C@H](C=O)C[C@H]1CCNC1=O)C1CN(C(=O)OC(C)(C)C)C1` [Compound 18b, tert-Butyl 3-(((((S)-4-methyl-1-oxo-1-(((S)-1-oxo-3-((R)-2-oxopyrrolidin-3-yl)propan-2-yl)amino)pentan-2-yl)carbamoyl)oxy)methyl-d2)azetidine-1-carboxylate]: in the data set “in vitro”, the CC50 is > 100000 nM.

These data come from paper PMC9172056 (Journal of medicinal chemistry, 2022).
